Measured values published in patent publication US8791102B2, “Acetanilide sphingosine-1-phosphate receptor antagonists” (Exelixis, Inc., priority 2008, dated 2014).

molecular target: T1, human S1P1 receptors (Homo sapiens, UniProt P21453); test: S1P1R antagonist assay (fluorescent membrane potential dye, cAMP readout); format: cell-based; details: HEK293 cells expressing human S1P1 receptors and CNG channel; 500 nM NECA; S1P1R agonist 10 nM; 90 minutes; read-out: EC50 or IC50 value
T1 construct: host or cells: HEK293
Text: The S1P1R antagonist assay is a fluorescent membrane potential dye measurement assay, indicative of intracellular cAMP changes due to G protein-coupled receptor activation. HEK293 cells engineered to express human S1P1 receptors and a cyclic nucleotide-gated (CNG) channel are obtained from BD Biosciences, 80300-250. The CNG channels are activated by elevated levels of cAMP, resulting in ion flux and cell membrane depolarization. Membrane depolarization is detected with a membrane potential dye. Stimulation of the cells with 5′-(N-ethylcarboxamido)adenosine (NECA), an A2b receptor agonist (Sigma, E2387), elicits an A2bR-dependent increase in cAMP.
Subsequent exposure of the cells to a S1P1R agonist suppresses the NECA induced increase in cAMP through S1P1R-specific signaling by inhibiting adenylyl cyclase and the formation of cAMP from ATP. The degree to which a test compound overcomes the S1P1R agonist suppression of the NECA induced increase in cAMP is a measure of S1P1R antagonist activity. Antagonist activity is quantified as the IC50 (i.e., the concentration needed to elicited one-half of the maximum response of the test compound) and/or as the EC50 (i.e., the concentration needed to elicited one-half of the NECA induced stimulation).
Day 1: Freshly thawed cells were plated into 384-well plates (Corning, 3683) at a density of 14,000 cells/well in 20 μL, complete media and incubated for 16 hours at 37° C., 5% CO2 and 99% relative humidity. Complete media included Dulbecco's modified Eagle's medium (Invitrogen, 11965-092), 10% Fetal bovine serum (Hyclone, SH30071.03), 250 μg/mL geneticin (Invitrogen, 10131-027), and 1 μg/mL Puromycin (Fluka, 82595).
Day 2: Membrane potential dye (20 μL, BD Biosciences, 341833) was added to each well and the plates were incubated for 2.5 hours at ambient temperature. Test compounds (20 μL) were added to the wells at various concentrations (≦10 μM, 1 to 3 dilutions) in a NECA base solution and incubated for 90 minutes in the presence of the S1P1R agonist {4-((4-phenyl-5-trifluoromethyl-2-thienyl)methoxy)benzyl}-3-azetidinecarboxylic acid (10 nM). The NECA-base solution contained Dulbecco's phosphate-buffered saline (Invitrogen, 14190-136), 2.5% DMSO (Fluka, 41648), 25 μM Ro 20-1724 (Sigma, B8279), and 500 nM NECA).
Assay plates were read with a PerkinElmer EnVision reader (Excitation 350 nm, Emission 590 nm) at time T=0 minutes, before compound addition and at time T=90 minutes. The signal was calculated as the ratio T90/T0. Data was analyzed in ActivityBase XE and graphs showing log of compound concentration (X-axis) vs. % activity (Y-axis) were generated for IC50 determinations. Percent activity was calculated with the following formula: (Signal−Agonist Control Signal)/(NECA Control Signal−Agonist Control Signal)×100.

T1 sequence (P21453 whole entry): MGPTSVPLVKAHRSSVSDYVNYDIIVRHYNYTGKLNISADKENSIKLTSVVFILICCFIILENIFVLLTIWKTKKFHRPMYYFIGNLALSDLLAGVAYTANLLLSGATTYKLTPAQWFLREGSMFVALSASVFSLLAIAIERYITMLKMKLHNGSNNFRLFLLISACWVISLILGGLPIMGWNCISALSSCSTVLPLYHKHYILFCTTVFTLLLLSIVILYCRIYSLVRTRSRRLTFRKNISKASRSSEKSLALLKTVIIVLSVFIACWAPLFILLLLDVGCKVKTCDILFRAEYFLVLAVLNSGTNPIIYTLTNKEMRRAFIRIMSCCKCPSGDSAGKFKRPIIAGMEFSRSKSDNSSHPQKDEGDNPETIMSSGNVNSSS

`CN1CCCC1CC1CCCCN1CC(=O)N[C@@H](COCc1ccccc1)C(=O)Nc1ccc(Oc2ccc(F)cc2)cc1` (stereo in doubt) [Compound 113, (2S)-3-(benzyloxy)-N-(4-(4-fluorophenoxy)phenyl)-2-(2-(2-(((S)-1-methylpyrrolidin-2-yl)methyl)piperidin-1-yl)acetamido)propanamide] was tested. Which IC50 did it give?
Its IC50 is greater than 1000 nM.

Which IC50 does the source give for `O=C(Cc1cnc[nH]1)N[C@@H](CCCc1ccccc1)C(=O)Nc1ccc(Oc2ccccc2)cc1` [Compound 1, (S)-2-(2-(1H-imidazol-5-yl)acetamido)-5-phenyl-N-(4-phenoxyphenyl)pentanamide] here?
Its IC50 is no more than 300 nM.

`O=C(Nc1ccc(Oc2ccc(F)cc2)cc1)[C@@H]1C[C@@H](Cc2ccc(F)cc2Cl)CN1C(=O)Cn1ccnn1` [Compound 2, (2S,4R)-1-(2-(1H-1,2,3-triazol-1-yl)acetyl)-4-(2-chloro-4-fluorobenzyl)-N-(4-(4-fluorophenoxy)phenyl)pyrrolidine-2-carboxamide] was tested. Which IC50 did it give?
Its IC50 is no more than 300 nM.

For `Cc1ccc(C[C@@H]2C[C@@H](C(=O)Nc3ccc(Oc4ccc(F)cc4)cc3)N(C(=O)Cn3ccnn3)C2)cc1` [Compound 3], which IC50 is on record?
Its IC50 is no more than 300 nM.

How did the IC50 turn out when `Cc1ccc(C[C@@H]2C[C@@H](C(=O)Nc3ccc(Oc4ccc(F)cc4)cc3)N(C(=O)Cn3cncn3)C2)cc1` [Compound 4] was run?
Its IC50 is no more than 300 nM.

`O=C(Nc1ccc(Oc2ccc(F)cc2)cc1)[C@@H]1C[C@@H](Cc2ccc(F)cc2Cl)CN1C(=O)Cn1nccn1` [Compound 5, (2S,4R)-1-(2-(2H-1,2,3-triazol-2-yl)acetyl)-4-(2-chloro-4-fluorobenzyl)-N-(4-(4-fluorophenoxy)phenyl)pyrrolidine-2-carboxamide] was tested. Which IC50 did it give?
The IC50 was no more than 300 nM.

Which IC50 does the source give for `Cc1cc(F)ccc1C[C@@H]1C[C@@H](C(=O)Nc2ccc(Oc3ccc(F)cc3)cc2)N(C(=O)Cn2ccnn2)C1` [Compound 6, (2S,4R)-1-(2-(1H-1,2,3-triazol-1-yl)acetyl)-4-(4-fluoro-2-methylbenzyl)-N-(4-(4-fluorophenoxy)phenyl)pyrrolidine-2-carboxamide] here?
Its IC50 is no more than 300 nM.

For `Cc1cc(F)ccc1C[C@@H]1C[C@@H](C(=O)Nc2ccc(Oc3ccc(F)cc3)cc2)N(C(=O)Cn2nccn2)C1` [Compound 7, (2S,4R)-1-(2-(2H-1,2,3-triazol-2-yl)acetyl)-4-(4-fluoro-2-methylbenzyl)-N-(4-(4-fluorophenoxy)phenyl)pyrrolidine-2-carboxamide], which IC50 is on record?
Its IC50 is no more than 300 nM.

Which IC50 does the source give for `Cc1cc(F)ccc1C[C@@H]1C[C@@H](C(=O)Nc2ccc(Oc3ccc(F)cc3)cc2)N(C(=O)Cn2cncn2)C1` [Compound 8, (2S,4R)-1-(2-(1H-1,2,4-triazol-1-yl)acetyl)-4-(4-fluoro-2-methylbenzyl)-N-(4-(4-fluorophenoxy)phenyl)pyrrolidine-2-carboxamide] here?
The IC50 was no more than 300 nM.

For `O=C(Nc1ccc(Oc2ccc(F)cc2)cc1)[C@@H]1C[C@@H](Cc2ccc(F)cc2Cl)CN1C(=O)Cn1cncn1` [Compound 9, (2S,4R)-1-(2-(1H-1,2,4-triazol-1-yl)acetyl)-4-(2-chloro-4-fluorobenzyl)-N-(4-(4-fluorophenoxy)phenyl)pyrrolidine-2-carboxamide], which IC50 is on record?
The IC50 was no more than 300 nM.

Which IC50 does the source give for `O=C(Nc1ccc(Oc2ccc(F)cc2)cc1)[C@@H]1C[C@@H](Cc2ccccc2)CN1C(=O)Cn1ccnn1` [Compound 10, (2S,4R)-1-(2-(1H-1,2,3-triazol-1-yl)acetyl)-4-benzyl-N-(4-(4-fluorophenoxy)phenyl)pyrrolidine-2-carboxamide] here?
The IC50 was no more than 300 nM.

For `Nc1nc(C(F)(F)F)nn1CC(=O)N1C[C@H](Cc2ccccc2)C[C@H]1C(=O)Nc1ccc(Oc2ccc(F)cc2)cc1` [Compound 11, (2S,4R)-1-(2-(5-amino-3-(trifluoromethyl)-1H-1,2,4-triazol-1-yl)acetyl)-4-benzyl-N-(4-(4-fluorophenoxy)phenyl)pyrrolidine-2-carboxamide], which IC50 is on record?
Its IC50 is no more than 300 nM.

How did the IC50 turn out when `O=C(Cn1cncn1)N1C[C@H](Cc2ccccc2)C[C@H]1c1nc2cc(Oc3ccc(F)cc3)ccc2[nH]1` [Compound 12, 1-((2S,4R)-4-benzyl-2-(5-(4-fluorophenoxy)-1H-benzo[d]imidazol-2-yl)pyrrolidin-1-yl)-2-(1H-1,2,4-triazol-1-yl)ethanone] was run?
Its IC50 is 300 to 1000 nM.

For `O=C(NC(COCc1ccccc1)C(=O)Nc1ccc(Oc2ccccc2)cc1)C(=O)c1ccco1` (stereo not shown) [Compound 14, 3-(benzyloxy)-2-(2-(furan-2-yl)-2-oxoacetamido)-N-(4-phenoxyphenyl)propanamide], which IC50 is on record?
Its IC50 is greater than 1000 nM.

For `O=C(CCCCCN1C(=O)C=CC1=O)NC(COCc1ccccc1)C(=O)Nc1ccc(Oc2ccccc2)cc1` (stereo not shown) [Compound 15, N-(3-(benzyloxy)-1-oxo-1-(4-phenoxyphenylamino)propan-2-yl)-6-(2,5-dioxo-2,5-dihydro-1H-pyrrol-1-yl)hexanamide], which IC50 is on record?
The IC50 was greater than 1000 nM.

How did the IC50 turn out when `CC(=O)Oc1ccc(C(=O)NC(COCc2ccccc2)C(=O)Nc2ccc(Oc3ccccc3)cc2)cc1` (stereo not shown) [Compound 17, 4-(3-(benzyloxy)-1-oxo-1-(4-phenoxyphenylamino)propan-2-ylcarbamoyl)phenyl acetate] was run?
The IC50 was greater than 1000 nM.

With `Cc1cncc(C(=O)NC(COCc2ccccc2)C(=O)Nc2ccc(Oc3ccccc3)cc2)c1` (stereo not shown) [Compound 18, N-(3-(benzyloxy)-1-oxo-1-(4-phenoxyphenylamino)propan-2-yl)-5-methylnicotinamide] as the molecule, how does the IC50 read?
The IC50 was greater than 1000 nM.

For `CS(=O)(=O)CC(=O)NC(COCc1ccccc1)C(=O)Nc1ccc(Oc2ccccc2)cc1` (stereo not shown) [Compound 19, 3-(benzyloxy)-2-(2-(methylsulfonyl)acetamido)-N-(4-phenoxyphenyl)propanamide], which IC50 is on record?
Its IC50 is greater than 1000 nM.

Which IC50 does the source give for `O=C(NC(COCc1ccccc1)C(=O)Nc1ccc(Oc2ccccc2)cc1)c1ccc2[nH]ccc2c1` (stereo not shown) [Compound 20, N-(3-(benzyloxy)-1-oxo-1-(4-phenoxyphenylamino)propan-2-yl)-1H-indole-5-carboxamide] here?
Its IC50 is greater than 1000 nM.

How did the IC50 turn out when `O=C(NC(COCc1ccccc1)C(=O)Nc1ccc(Oc2ccccc2)cc1)c1cc(F)ccc1Br` (stereo not shown) [Compound 21, N-(3-(benzyloxy)-1-oxo-1-(4-phenoxyphenylamino)propan-2-yl)-2-bromo-5-fluorobenzamide] was run?
The IC50 was greater than 1000 nM.

`O=C(CC(F)(F)F)NC(COCc1ccccc1)C(=O)Nc1ccc(Oc2ccccc2)cc1` (stereo not shown) [Compound 22, N-(3-(benzyloxy)-1-oxo-1-(4-phenoxyphenylamino)propan-2-yl)-3,3,3-trifluoropropanamide] was tested. Which IC50 did it give?
The IC50 was 300 to 1000 nM.

How did the IC50 turn out when `O=C(Nc1ccc(Oc2ccccc2)cc1)C(COCc1ccccc1)NC(=O)[C@H]1CCCO1` (stereo partly drawn) [Compound 23, (2R)—N-(3-(benzyloxy)-1-oxo-1-(4-phenoxyphenylamino)propan-2-yl)tetrahydrofuran-2-carboxamide] was run?
Its IC50 is greater than 1000 nM.

Which IC50 does the source give for `O=C(Nc1ccc(Oc2ccccc2)cc1)C(COCc1ccccc1)NC(=O)[C@H](O)c1ccccc1Cl` (stereo partly drawn) [Compound 24, 3-(benzyloxy)-2-((R)-2-(2-chlorophenyl)-2-hydroxyacetamido)-N-(4-phenoxyphenyl)propanamide] here?
Its IC50 is greater than 1000 nM.

How did the IC50 turn out when `CC(=O)O[C@@H](C)C(=O)NC(COCc1ccccc1)C(=O)Nc1ccc(Oc2ccccc2)cc1` (stereo partly drawn) [Compound 25, (2S)-1-(3-(benzyloxy)-1-oxo-1-(4-phenoxyphenylamino)propan-2-ylamino)-1-oxopropan-2-yl acetate] was run?
The IC50 was greater than 1000 nM.

How did the IC50 turn out when `O=C(COc1ccccc1O)NC(COCc1ccccc1)C(=O)Nc1ccc(Oc2ccccc2)cc1` (stereo not shown) [Compound 26, 3-(benzyloxy)-2-(2-(2-hydroxyphenoxy)acetamido)-N-(4-phenoxyphenyl)propanamide] was run?
Its IC50 is greater than 1000 nM.

Which IC50 does the source give for `O=C(Nc1ccc(Oc2ccccc2)cc1)C(COCc1ccccc1)NC(=O)[C@H](O)Cc1ccccc1` (stereo partly drawn) [Compound 27, 3-(benzyloxy)-2-((R)-2-hydroxy-3-phenylpropanamido)-N-(4-phenoxyphenyl)propanamide] here?
The IC50 was greater than 1000 nM.

`CSc1ncccc1C(=O)NC(COCc1ccccc1)C(=O)Nc1ccc(Oc2ccccc2)cc1` (stereo not shown) [Compound 28, N-(3-(benzyloxy)-1-oxo-1-(4-phenoxyphenylamino)propan-2-yl)-2-(methylthio)nicotinamide] was tested. Which IC50 did it give?
Its IC50 is greater than 1000 nM.

`O=C(NC(COCc1ccccc1)C(=O)Nc1ccc(Oc2ccccc2)cc1)C1CC(=O)N(Cc2ccc(Cl)cc2)C1` (stereo not shown) [Compound 29, N-(3-(benzyloxy)-1-oxo-1-(4-phenoxyphenylamino)propan-2-yl)-1-(4-chlorobenzyl)-5-oxopyrrolidine-3-carboxamide] was tested. Which IC50 did it give?
Its IC50 is greater than 1000 nM.
